Measured values published in patent US20210108198A1, “APPLICATION OF COMPOUND OR TRADITIONAL CHINESE MEDICINE EXTRACT IN PREPARATION OF NUCLEIC ACID DELIVERY AGENT AND RELATED PRODUCTS THEREOF” (INSTITUTE OF BASIC MEDICAL SCIENCES CHINESE ACADEMY OF …, priority 2017, published 2021).
Entries after “also recorded” stand apart in the source; their conditions may differ.

Legend:
A549 cells [1] = test: Confocal fluorescence microscopy of nucleic acid delivered by lipid in cells; type: cell-based, human; settings: 4 μl lipid, boiling method; 6 hours of co-incubation
Procedure: Experimental materials: A549 cells (purchased from the Cell Center of the Chinese Academy of Medical Sciences), PGY-sRNA-6-Cy3 (purchased from Ribobio Biotechnology Co., Ltd.), lipid No. 41, Zeiss LSM780 (purchased from Zeiss, Germany), Alexa Fluor® 488 phalloidin (purchased from Invitrogen, USA), DAPI (purchased from Invitrogen, USA), paraformaldehyde (purchased from sigma, USA).
(§1) Experimental methods: PGY-sRNA-6-FAM was dissolved in 100 μl water, mixed with 4 μl lipid, and prepared by the boiling method. Then the mixture was dropped into A549 cells, and after 6 hours of co-incubation, the samples were washed three times with PBS, fixed with 4% paraformaldehyde, washed three times with PBS, stained with Alexa Fluor® 488 phalloidin for 30 min, washed 3 times with PBS, and stained with DAPI for 5 min, washed with PBS, and then sealed.
as §1, with “method:” for “methods:”, “water, and” for “water,”, “by” for “by the”, “Then,” for “Then”, “PBS washed,” for “washed with PBS,”

[2] = In vivo delivery of single-stranded sRNA by single lipid via gavage (blood, stomach, small intestine, liver); design: species or system C57 mice; settings: 10 μl lipid, 1 nmol each sRNA (PGY-sRNA-23/-26/-32), heating method, 6 hours or 12 hours after administration
Description: Tissues sampled: live/stomach/small intestine.

A549 cells [3] = test: Digital PCR (ddPCR) detection of the efficiency of nucleic acid delivery by lipid; type: cell-based, human
Procedure: (§2) 2.2 Experimental method: the total cellular RNA was collected and extracted by TRIzol lysis buffer according to the above methods, and reverse transcribed to cDNA using High capacity cRNA Reverse Transcription Kit, and the cDNA from different groups was subject to digital PCR reaction. Refering to the QX200 Droplet Reader and QuantaSoft Software manual for the protocols, the results were analyzed using QuantaSoft software.
as §2, with “method:” for “method: the”, “total” for “total cellular”, “method,” for “methods,”, “subjected” for “subject”, “Refer” for “Refering”, “protocols;” for “protocols,”
(§3) 2.2 Experimental method: Total RNA was collected and extracted by TRIzol lysis buffer according to the above method, and reverse transcribed to cDNA using TaqMan™ MicroRNA Reverse Transcription KitHigh, and the cDNA from different groups was subjected to digital PCR reaction. Refer to the QX200 Droplet Reader and QuantaSoft Software manual for the protocols; the results were analyzed using QuantaSoft software.
as §3, with “reversed” for “reverse transcribed”, “High capacity cRNA” for “TaqMan™ MicroRNA”, “Kit,” for “KitHigh,”

A549 cell = test: RT-qPCR detection of nucleic acid delivered by lipid into A549 cells; type: cell-based, human; settings: double-stranded HJT-sRNA-m7 100 nM; reverse evaporation method; 12 hours; FIG. 99
Procedure: 3.1 NCI-N87 cell (gastric cancer cell), MRC-5 cell (lung fibroblast), A549 cell (lung cancer cell) were cultured to logarithmic growth phase, and then plated to a six-well plate at cell density of 1×10^6/2 mL medium/well; MRC-5 cell was cultured in Eagle's MEM medium (MEM, Gibco); A549 cell was cultured in Ham's F-12 medium (HyClone); NCI-N87 cell was cultured in RPMI-1640 medium (HyClone); followed by incubation overnight at 37° C., and the follow-up experiments were performed after the cells were attached to the walls.
4) Lipid nucleic acid mixture: the mixture of lipid and HJT-sRNA-m7 prepared from the step 2 were added into cells and mixed, and the final concentration of RNA was kept at 200 nM.
3.3 After co-incubation with the small RNA for 3 hours, the cells were washed 2-3 times with PBS. The cells were harvested with TRIzol lysis buffer, and the total RNA was extracted. The abundance of small RNA that entered cells was detected by RT-qPCR, and the localization of RNA was detected by fluorescence in situ hybridization; protocols of each detection method were as follows:
3.3.1 RT-qPCR Detection of Small RNA (Taqman Probe Method)
3.3.2 RT-qPCR Detection of Small RNA (SYBR Green Dye Method)
Mixtures of soybean PC, lipid No. 11 (18:0/18:2) and lipid No. 12 (16:0/18:2), and various small RNA (see below Table 3) were prepared by the reverse evaporation method and then added into A549 cell line (the final concentration of sRNA was 200 nM); the negative control group (control) was directly added with the same concentration of sRNA; the positive control group (RNAimax) was transfected with Lipofectamine RNAimax (transfection reagent 6 μl/well). The abundance of sRNA in the cells was detected by Taqman probe after 3 hours, and the relative expression level of sRNA was calculated by 2-ΔCt method.
3.1.3 After co-incubation with cells for 12-24 hours, the cells were washed twice with PBS. The cells were harvested with TRIzol lysis buffer (purchased from Sigma-Aldrich), and total RNA was extracted. The abundance of HJT-sRNA-m7 that entered the cells was detected by RT-qPCR; the protocols were as follows:
4368813) was used to reverse transcribe sRNA to cDNA by stem-loop method (see, e.g. Real-time quantification of microRNAs by stem-loop RT-PCR, Nucleic Acids Res. 2005 Nov. 27; 33(20):e179, incorporated by reference herein).

[4] = system: fibronectin protein expression in MRC-5 cells; test: Western blot of fibronectin after lipid-mediated delivery of anti-fibrotic HJT-sRNA into TGF-β1 stimulated MRC-5 cells; type: cell-based; settings: nucleic acid 400 nM; TGF-β1 3 ng/mL; preparation method not given; FIG. 102
Procedure: 3.3.1 MRC-5 cell (pulmonary embryonic fibroblast), and A549 cell (human lung adenocarcinoma cell) were cultured to logarithmic growth phase, and then plated into 12-well plates at a cell density of 6×10^5/1 mL medium/well; MRC-5 cells were cultured in Eagle's MEM medium (MEM, Gibco); A549 cells were cultured in Ham's F-12 medium (HyClone); followed by incubation overnight at 37° C., and the follow-up experiments were performed after the cells were attached to the walls.
4) Lipid nucleic acid mixture: the mixture of lipid and nucleic acid prepared from the step 2 were added into cells and mixed, and the final concentration of nucleic acid was 400 nM.
3.3.3 After 24 hours of treatment, the cells were stimulated with the stimulant (1 μg/mL poly (I:C) (P1530, Sigma-Aldrich) as double-stranded RNA viruses mimetics) or 3 ng/mL transforming growth factor TGFβ1 (Pepro Tech)). […]

CCCCCCCC/C=C\CCCCCCCCCCCC(=O)O[C@H](COC(=O)CCCCCCCCCCCCCCC)COP(=O)(O)OCCN [No. 40, (2-aminoethoxy)[(2R)-2-[(13Z)-docos-13-enoyloxy]-3-(hexadecanoyloxy)propoxy]phosphinic acid]
entry of PGY-sRNA-6-Cy3 observed under the confocal microscopy (A549 cells [1]): could effectively deliver single-stranded RNA into A549 cells
entry of single-stranded small RNA into mouse blood (RT-qPCR) [2]: could effectively deliver sRNA single-stranded nucleic acid into mouse blood via oral administration; also recorded: the delivery effect was better than POPC and Lipofectamine RNAiMAX
delivery of HJT-sRNA-m7 dsRNA (ddPCR) (A549 cells [3]; boiling method, 6 hours): could effectively deliver HJT-sRNA-m7 dsRNA into A549 cells
delivery of HJT-sRNA-m7 dsRNA (ddPCR) (A549 cells [3]; reverse evaporation method, 6 hours (No. 39: 6 hours, 12 hours)): could effectively deliver HJT-sRNA-m7 dsRNA into A549 cells
delivery effect relative to RNAiMAX (real-time PCR) (A549 cell): ½
fibronectin protein expression after delivery of double-stranded HJT-sRNA-m7 (Western blot) [4]: to down-regulate fibronectin protein expression
